From patent publication US20240091172A1, “DRUG FOR ANTAGONIZING REPLICATION OF PORCINE REPRODUCTIVE AND RESPIRATORY SYNDROME VIRUS AND APPLICATION THEREOF” (NANJING AGRICULTURAL UNIVERSITY, priority 2019, published 2024)

Key:
PRRSV [1] = assay: PRRSV replication in PAM cells (N protein, ORF7 mRNA, titer, different strains); format: cell-based, porcine reproductive and respiratory syndrome virus
Method: (§1) Marc-145 cells were cultured in a 96-well plate. When the cell confluence reached 70%, a nutrient solution was pipetted and discarded, and the cell surface was washed 3 times with PBS. Ten-fold serially diluted PRRSV was added to the cells and the cells were incubated at 37° C. for 1 h. The medium was replaced with fresh 2% FBS-DMEM. Virus titers were determined 5 days post-inoculation (dpi) using end-point dilution analysis. The 50% cell infectious dose (TCID50) was calculated by the Reed-Muench method.
(§2) Cellular RNAs were extracted following the operation instructions of an OMEGA RNA virus extraction kit. […] Relative fluorescence quantification was performed after reverse transcription, and the primer sequences used were as follows:
The results are shown in FIGS. 4A-D. In PAM, Xn could inhibit the replication of different genetic subtypes of PRRSV strains in the viral ORF7 gene and protein levels, and reduce the viral infection titer.

[2] = tested on: IL-1β, IL-6, IL-8 and TNF-α mRNA; assay: PRRSV- or LPS-induced inflammatory reaction in Marc-145 cells (qRT-PCR); format: cell-based
Method: as §2
(§3) According to the method of 2-ΔΔCt, the relative content of mRNA of each gene in a sample was calculated with a CT value.
(§4) Marc-145 cells and PAM cells were inoculated with 0.1 MOI PRRSV and incubated at 37° C. for 1 h. The nutrient solution was replaced with DMEM-2% FBS containing Xn (or DMSO), and 24 h post infection, cellular RNAs were extracted. A positive control group was set up: Marc-145 cells and PAMs were treated with 10 μg/mL LPS (or DMEM) for 1 h; the cell surface was washed 3 times with PBS; 2% FBS-DMEM containing Xn (or DMSO) was added; and after 6 h, the cells were collected, RNAs were extracted, and the mRNA levels of IL-1β, IL-6, IL-8 and TNF-α were detected by qRT-PCR. The results are shown in FIG. 6 (Marc-145) and FIG. 7 (PAM cells).

PRRSV [3] = assay: IC50 against PRRSV in Marc145 cells by indirect immunofluorescence; format: cell-based; conditions: Porcine reproductive and respiratory syndrome virus
Method: (§5) Xn of different concentrations was added to a PAMs medium (1-30 μM), and a DMSO negative control group was set up. Cells were inoculated with PRRSV (0.01 MOI) and incubated at 37° C. for 30 h, and the cell supernatant was pipetted and discarded. The cells were fixed with 4% (volume ratio) paraformaldehyde for 15 min, permeabilized with 0.1% (volume ratio) Triton X-100 for 30 min, and washed 3 times with PBS for 3 min each time. A PRRSV N protein monoclonal antibody (2H7) at a dilution of 1:1000 was added, and the cells were incubated at 37° C. for 1 h, and washed 3 times with PBST for 3 min each time. Alexa Fluor 594 goat anti-mouse IgG at a dilution of 1:1000 was added, and the cells were incubated at 37° C. for 45 min. The nuclei were stained with DAPI for 10 min at room temperature. Three photos were recorded randomly with a Nikon A1 confocal microscope. The fluorescence intensity was measured by ImageJ software. Finally, the 50% inhibitory concentration (IC50) of Xn against PRRSV was calculated by GraphPad Prism 7.0 software, and the results were recorded.
(§6) Further, the inhibitory efficiency of Xn on PRRSV in Marc145 cells was detected by indirect immunofluorescence. […] To further determine the dose range of Xn with the anti-PRRSV activity, Marc-145 cells were treated with 5 μM, 10 μM, and 15 μM Xn respectively, and then infected with PRRSV (0.01 MOI).

Marc-145 cells = assay: Cytotoxicity to Marc-145 cells (CCK8, CC50); format: cell-based
Method: (§7) Cell viability was detected with the enhanced CCK8 kit. The concentration (CC50) at which Xn was cytotoxic to 50% of the cells was calculated using GraphPad Prism 7.0 software. DMSO was used as a negative control.
as §6

[4] = Cytotoxicity to Marc-145 cells (CCK8, CC50); format: cell-based; conditions: African green monkey, Marc-145 cells; Marc145 cells, CCK8 cytotoxicity assay
Method: as §7, §6

PRRSV [5] = assay: PRRSV replication in Marc-145 cells (TCID50, ORF7 mRNA, CPE/IFA, Western blot); format: cell-based, porcine reproductive and respiratory syndrome virus
Method: as §1, §2, §3, §6

PRRSV [6] = assay: IC50 against PRRSV in PAMs by immunofluorescence; format: cell-based; conditions: Porcine reproductive and respiratory syndrome virus; PAMs cells
Method: as §5

PRRSV [7] = assay: Natural product drug library screening, PRRSV infection of Marc-145 cells; format: cell-based, porcine reproductive and respiratory syndrome virus; conditions: for inhibitory effects on PRRSV: second round hits
Method: Marc-145 cells were treated with 10 μM of natural products and then infected with PRRSV. In the first round of screening, 24 compounds (6.21%) had no obvious cytotoxicity to Marc-145 cells and could reduce PRRSV-induced CPE by 50% (FIG. 1A).

PRRSV [8] = assay: Stage experiment of drug (pre-, co-, post-treatment) in PAMs; format: cell-based, porcine reproductive and respiratory syndrome virus; conditions: 24 hpi
Method: Xn treatment time and PRRSV infection time are shown on the timeline in FIG. 5A. PAMs were inoculated into a 24-well plate, and after complete sedimentation, the time was set as −1 h. 10 μM Xn was added to a pretreatment group (Pre) at −1 h; and at 0 h; cells were inoculated 0.1 moi PRRSV and incubated at 37° C. for 1 h; the virus-containing cell culture was replaced with 2% FBS-DMEM; and the cells were cultured at 37° C. for 24 h. Xn was added to the cells in a co-treatment group (Co) at 0 h; the cells were inoculated with 0.1 moi PRRSV, and incubated at 37° C. for 1 h; the virus-containing cell culture was replaced with 2% FBS-DMEM; and the cells were cultured at 37° C. for 24 h. A post-treatment group (Post) was inoculated with 0.1 moi PRRSV at 0 h; the culture was discarded at 1 h and replaced with 2% FBS-DMEM containing 10 μM Xn; and the cells were cultured at 37° C. for 24 h.
PAMs were treated with Xn before, during and after PRRSV infection (FIG. 5A). Cell samples were collected at 24 hpi for detection of PRRSV N protein and PRRSV ORF7 mRNA by Western blot and qRT-PCR respectively, and the cell supernatant was collected for virus titer determination.

[9] = tested on: IL-1β, IL-6, IL-8 and TNF-α mRNA; assay: PRRSV- or LPS-induced inflammatory reaction in PAM cells (qRT-PCR); format: cell-based, porcine
Method: as §2, §3, §4

[10] = Cytotoxicity (CC50) in PAMs cells; format: cell-based, porcine; conditions: pig
PRRSV [11] = assay: Anti-PRRSV activity of xanthohumol derivatives on Marc-145; format: cell-based, porcine reproductive and respiratory syndrome virus
PRRSV BB0907 strain = assay: Piglet treatment experiment after PRRSV infection; format: in vivo, piglets; conditions: for virus level in the serum vs virus-infected positive control group: 4-14 dpi
[12] = PAM cells, dose-dependent manner
[13] = Marc-145, 5, 10, 15 μM Xn, 0.01 MOI, 24, 36, 48 hpi

COc1cc(O)c(CC=C(C)C)c(O)c1C(=O)/C=C/c1ccc(O)cc1 [Xn, xanthohumol]
replication of different genetic subtypes of PRRSV strains (ORF7 gene and protein levels) (PRRSV [1]; PAM): inhibit
level of PRRSV N protein (PRRSV [1]; [12]): decreased
level of viral mRNA (PRRSV [1]; [12]): decreased
viral infection titer (PRRSV [1]; PAM, different genetic subtypes of PRRSV strains): reduce
mRNA expressions of IL-1β, IL-6, IL-8 and TNF-α induced by LPS ([2]; Marc-145, 10 μg/mL LPS, 6 h, dose-dependent): effectively reduce
mRNA expressions of IL-1β, IL-6, IL-8 and TNF-α induced by PRRSV ([2]; Marc-145, 0.1 MOI PRRSV, 24 h post infection, dose-dependent): effectively reduce
intracellular inflammatory factors, Xn control treatment ([2]; Marc-145, Xn alone): did not cause changes
IC50 (PRRSV [3]): 2.37 µM
CC50, comparison among the 5 screened compounds (Marc-145 cells; Marc-145 cells): highest
CC50 at 48 h [4]: 62.5 µM
replication of the three PRRSV strains (Western blot) (PRRSV [5]; Marc-145): effectively reduce
number of infected cells (CPE and IFA) vs negative control group (PRRSV [5]; Marc-145, 48 hpi): significantly less
ORF7 mRNA level (PRRSV [5]; [13]): dose-dependent decrease
viral titers (TCID50 of PRRSV) (PRRSV [5]; [13]): dose-dependent decrease
IC50 (PRRSV [6]): 7.05 µM
IC50, comparison among the 5 screened compounds (PRRSV [7]): lowest
selectivity index, comparison among the 5 screened compounds (PRRSV [7]): highest
inhibitory effects on PRRSV (PRRSV [7]): dose-dependent inhibitory effects
level of PRRSV replication (N protein, ORF7 mRNA, virus titer) (PRRSV [8]; 10 μM Xn co-treatment (Co)): inhibited the virus to a lower degree
level of PRRSV replication (N protein, ORF7 mRNA, virus titer) (PRRSV [8]; 10 μM Xn post virus infection (Post)): significantly reduced
level of PRRSV replication (N protein, ORF7 mRNA, virus titer) (PRRSV [8]; 10 μM Xn pretreatment (Pre)): inhibited the virus to a lower degree
mRNA expressions of IL-1β, IL-6, IL-8 and TNF-α induced by LPS ([9]; 10 μg/mL LPS, 6 h, dose-dependent): effectively reduce
mRNA expressions of IL-1β, IL-6, IL-8 and TNF-α induced by PRRSV ([9]; 0.1 MOI PRRSV, 24 h post infection, dose-dependent): effectively reduce
intracellular inflammatory factors, Xn control treatment ([9]; Xn alone): did not cause changes
CC50 [10]: 42.6 µM

COc1cc(OC)c(C(=O)/C=C/c2ccc(O)cc2)c(OC)c1 [Xn-2]
anti-PRRSV activity on Marc-145 (PRRSV [11]; 0-50 uM): inhibitory effects

COc1cc(O)c(C(=O)/C=C/c2ccc(O)cc2)c(OC)c1 [Xn-4]
pigs died (PRRSV BB0907 strain; 10 mg/kg intramuscular, 5 per group, death at 10 dpi): 1
rectal temperature of the piglets (PRRSV BB0907 strain; 10 mg/kg intramuscular, 14 days post infection): increased
virus level in the serum vs virus-infected positive control group (PRRSV BB0907 strain; 10 mg/kg, P<0.05): significantly lower
lung pathological change scores vs positive control group (PRRSV BB0907 strain; 10 mg/kg, 14 dpi, P<0.05): significantly lower
clinical fever and clinical symptoms (PRRSV BB0907 strain; 20 mg/kg intramuscular, days 0-14): no clinical fever or obvious clinical symptoms
survival (PRRSV BB0907 strain; 20 mg/kg intramuscular, during the experiment): all were healthy and alive
copy number of the PRRSV genome in the nasal swabs vs positive control group (PRRSV BB0907 strain; 20 mg/kg, 4-10 dpi): significantly lower
virus level in the serum vs virus-infected positive control group (PRRSV BB0907 strain; 20 mg/kg, P<0.05): significantly lower
PRRSV viral load in the lungs vs control group (PRRSV BB0907 strain; 20 mg/kg, 14 dpi, P<0.05): significantly lower
lung pathological change scores vs positive control group (PRRSV BB0907 strain; 20 mg/kg, 14 dpi, P<0.05): significantly lower
inflammatory factors IL-1β, IL-6, IL-8 and TNF-α mRNA in the lung tissue (PRRSV BB0907 strain; 5, 10, 20 mg/kg, qRT-PCR): decreased in a dose-dependent manner
anti-PRRSV activity on Marc-145 (PRRSV [11]; 0-50 uM): inhibitory effects
anti-PRRSV effect, ranking among the three compounds (PRRSV [11]; 0-50 uM, Marc-145): best effect
concentration with an obvious antiviral effect (PRRSV [11]; Marc-145): 15 µM

COc1cc(O)cc(O)c1C(=O)/C=C/c1cccc([N+](=O)[O-])c1 [Xn-5]
cytotoxicity (Marc-145 cells; low concentrations): highly cytotoxic
antiviral ability (PRRSV [11]; low concentrations): did not have antiviral ability

Oc1c(Cl)cc(Cl)c2cccnc12 [chloroxine, reference compound]
inhibitory effects on PRRSV (PRRSV [7]): dose-dependent inhibitory effects

COc1cc(/C=C/C(=O)CC(=O)/C=C/c2ccc(O)c(OC)c2)ccc1O [curcumin]
inhibitory effects on PRRSV (PRRSV [7]): dose-dependent inhibitory effects
